From patent publication US10689354B2, “Aminoazole derivative” (Teijin Pharma Limited, priority 2015, dated 2020) come the findings set out here.

The experiment addresses T1, androgen receptor (AR-LBD) (Rattus norvegicus, UniProt P15207).
T1 construct: 5 μL of 2×AR-LBD/Fluoromone AL Red Complex contained in the kit; purchased Invitrogen
T1 sequence (P15207 651-882 limits assumed): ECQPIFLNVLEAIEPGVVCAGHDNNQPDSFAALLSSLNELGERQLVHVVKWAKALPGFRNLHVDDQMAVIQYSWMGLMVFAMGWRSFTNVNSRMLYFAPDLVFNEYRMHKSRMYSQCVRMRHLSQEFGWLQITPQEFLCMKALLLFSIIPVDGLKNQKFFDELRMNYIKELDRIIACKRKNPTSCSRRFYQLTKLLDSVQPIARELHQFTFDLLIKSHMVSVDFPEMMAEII
As to the kind of experiment: Evaluation of androgen receptor affinity (PolarScreen Androgen Receptor Competitor Assay Kit, Red; fluorescence polarization). The following applies: 22° C. for 5 hours, relative to binding rate of 1 μM DHT, read-out: AR affinity (pEC50) (converted). The procedure, abridged: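 FP competition: compound + AR-LBD/Fluoromone AL Red tracer complex, 22° C, 5 h. Reference 1 μM DHT binding rate; pEC50 by 4-parameter fit.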
(In general: Fluorescence polarisation rises when a labelled molecule tumbles more slowly, as on binding a larger partner.)

For the compound `Cc1sc(N(CCc2ccc(C(N)=O)cc2)Cc2ccccc2)nc1C(=O)NS(C)(=O)=O` [Compound 737, 2-[benzyl-[2-(4-carbamoylphenyl)ethyl]amino]-5-methyl-N-methylsulfonyl-thiazole-4-carboxamide], the EC50 was over 2000 nM.

As for `Cc1sc(N(CCc2ccncc2)Cc2ccccc2)nc1C(=O)NS(C)(=O)=O` [Compound 743, 2-[benzyl-[2-(4-pyridyl)ethyl]amino]-5-methyl-N-methylsulfonyl-thiazole-4-carboxamide], the EC50 is 631 nM.

Turning to `Cc1sc(N(Cc2ccccc2)c2cc3ccccc3cn2)nc1C(=O)NS(C)(=O)=O` [Compound 745, 2-[benzyl(3-isoquinolyl)amino]-5-methyl-N-methylsulfonyl-thiazole-4-carboxamide], the EC50 was over 2000 nM.

`Cc1sc(N(Cc2ccccc2)c2ccc3ccn(C)c3c2)nc1C(=O)NS(C)(=O)=O` [Compound 746, 2-[benzyl-(1-methylindol-6-yl)amino]-5-methyl-N-methylsulfonyl-thiazole-4-carboxamide]: the EC50 was over 2000 nM.

Take `COc1cccc(N(Cc2ccccc2)c2nc(C(=O)NS(C)(=O)=O)c(C)s2)c1` [Example 204, 2-(N-benzyl-3-methoxy-anilino)-5-methyl-N-methylsulfonyl-thiazole-4-carboxamide]: the EC50 is over 2000 nM.

Consider `Cc1sc(N(Cc2ccccc2)c2cccc(O)c2)nc1C(=O)NS(C)(=O)=O` [Example 205, 2-(N-benzyl-3-hydroxy-anilino)-5-methyl-N-methylsulfonyl-thiazole-4-carboxamide], for which the EC50 was over 2000 nM.

On to `Cc1sc(N(Cc2ccccc2)c2ccc(O)cc2)nc1C(=O)NS(C)(=O)=O` [Example 206, 2-(N-benzyl-4-hydroxy-anilino)-5-methyl-N-methylsulfonyl-thiazole-4-carboxamide], for which the EC50 is over 2000 nM.

For `Cc1sc(N(Cc2ccccc2)c2ccccc2O)nc1C(=O)NS(C)(=O)=O` [Example 207, 2-(N-benzyl-2-hydroxy-anilino)-5-methyl-N-methylsulfonyl-thiazole-4-carboxamide], the EC50 was over 2000 nM.

Regarding `Cc1sc(N(Cc2ccccc2)c2cccc(OCCOCc3ccccc3)c2)nc1C(=O)NS(C)(=O)=O` [Example 208, 2-[N-benzyl-3-(2-benzyloxyethoxy)anilino]-5-methyl-N-methylsulfonyl-thiazole-4-carboxamide], the EC50 was over 2000 nM.

Consider `Cc1sc(N(Cc2ccccc2)c2ccc(OCCOCc3ccccc3)cc2)nc1C(=O)NS(C)(=O)=O` [Example 209, 2-[N-benzyl-4-(2-benzyloxyethoxy)anilino]-5-methyl-N-methylsulfonyl-thiazole-4-carboxamide], for which the EC50 was over 2000 nM.

As to `Cc1sc(N(Cc2ccccc2)c2cccc(OCCO)c2)nc1C(=O)NS(C)(=O)=O` [Example 210, 2-[N-benzyl-3-(2-hydroxyethoxy)anilino]-5-methyl-N-methylsulfonyl-thiazole-4-carboxamide], the EC50 is over 2000 nM.

With `Cc1sc(N(Cc2ccccc2)c2ccc(OCCO)cc2)nc1C(=O)NS(C)(=O)=O` [Example 211, 2-[N-benzyl-4-(2-hydroxyethoxy)anilino]-5-methyl-N-methylsulfonyl-thiazole-4-carboxamide], the EC50 is over 2000 nM.

Regarding `Cc1sc(N(Cc2ccccc2)c2ccc(OCC(=O)O)cc2)nc1C(=O)NS(C)(=O)=O` [Example 212, 2-[4-[benzyl-[5-methyl-4-(methylsulfonylcarbamoyl)thiazol-2-yl]amino]phenoxy]acetic acid], the EC50 was over 2000 nM.

`CNC(=O)COc1ccc(N(Cc2ccccc2)c2nc(C(=O)NS(C)(=O)=O)c(C)s2)cc1` [Example 213, 2-[N-benzyl-4-[2-(methylamino)-2-oxo-ethoxy]anilino]-5-methyl-N-methylsulfonyl-thiazole-4-carboxamide]: the EC50 is over 2000 nM.

As to `Cc1sc(N(Cc2ccccc2)c2ccc(OCC(=O)N(C)C)cc2)nc1C(=O)NS(C)(=O)=O` [Example 214, 2-[N-benzyl-4-[2-(dimethylamino)-2-oxo-ethoxy]anilino]-5-methyl-N-methylsulfonyl-thiazole-4-carboxamide], the EC50 was over 2000 nM.

For the compound `Cc1sc(N(Cc2ccccc2)c2cccc(C(F)(F)F)c2)nc1C(=O)NS(C)(=O)=O` [Example 224, 2-[N-benzyl-3-(trifluoromethyl)anilino]-5-methyl-N-methylsulfonyl-thiazole-4-carboxamide], the EC50 is 1260 nM.

On to `Cc1sc(N(Cc2ccccc2)c2cccc(C#N)c2)nc1C(=O)NS(C)(=O)=O` [Example 225, 2-(N-benzyl-3-cyano-anilino)-5-methyl-N-methylsulfonyl-thiazole-4-carboxamide], for which the EC50 is over 2000 nM.

On to `Cc1sc(N(Cc2ccccc2)c2ccc(CO)cc2)nc1C(=O)NS(C)(=O)=O` [Example 226, 2-[N-benzyl-4-(hydroxymethyl)anilino]-5-methyl-N-methylsulfonyl-thiazole-4-carboxamide], for which the EC50 is over 2000 nM.

With `Cc1sc(N(Cc2ccccc2)c2cccc3ccccc23)nc1C(=O)NS(C)(=O)=O` [Example 227, 2-[benzyl(1-naphthyl)amino]-5-methyl-N-methylsulfonyl-thiazole-4-carboxamide], the EC50 is over 2000 nM.

Regarding `Cc1sc(N(Cc2ccccc2)c2ccccc2C(F)(F)F)nc1C(=O)NS(C)(=O)=O` [Example 228, 2-[N-benzyl-2-(trifluoromethyl)anilino]-5-methyl-N-methylsulfonyl-thiazole-4-carboxamide], the EC50 is over 2000 nM.

Take `Cc1sc(N(Cc2ccccc2)c2cccc(CO)c2)nc1C(=O)NS(C)(=O)=O` [Example 229, 2-[N-benzyl-3-(hydroxymethyl)anilino]-5-methyl-N-methylsulfonyl-thiazole-4-carboxamide]: the EC50 was over 2000 nM.

In the case of `Cc1sc(N(Cc2ccccc2)c2cccc(CCOCc3ccccc3)c2)nc1C(=O)NS(C)(=O)=O` [Example 231, 2-[N-benzyl-3-(2-benzyloxyethyl)anilino]-5-methyl-N-methylsulfonyl-thiazole-4-carboxamide], the EC50 was over 2000 nM.

With `Cc1sc(N(Cc2ccccc2)c2ccccc2C#N)nc1C(=O)NS(C)(=O)=O` [Example 233, 2-(N-benzyl-2-cyano-anilino)-5-methyl-N-methylsulfonyl-thiazole-4-carboxamide], the EC50 was over 2000 nM.

Turning to `Cc1sc(N(Cc2ccccc2)c2ccc(CCO)cc2)nc1C(=O)NS(C)(=O)=O` [Example 234, 2-[N-benzyl-4-(2-hydroxyethyl)anilino]-5-methyl-N-methylsulfonyl-thiazole-4-carboxamide], the EC50 is over 2000 nM.

For `Cc1sc(N(Cc2ccccc2)c2ccc(CCOCc3ccccc3)cc2)nc1C(=O)NS(C)(=O)=O` [Example 235, 2-[N-benzyl-4-(2-benzyloxyethyl)anilino]-5-methyl-N-methylsulfonyl-thiazole-4-carboxamide], the EC50 was over 2000 nM.

As for `Cc1sc(N(Cc2ccccc2)c2ccnc3ccccc23)nc1C(=O)NS(C)(=O)=O` [Example 236, 2-[benzyl(4-quinolyl)amino]-5-methyl-N-methylsulfonyl-thiazole-4-carboxamide], the EC50 was over 2000 nM.

For `Cc1sc(N(Cc2ccccc2)c2ccc(C(F)(F)F)nn2)nc1C(=O)NS(C)(=O)=O` [Example 237, 2-[benzyl-[6-(trifluoromethyl)pyridazin-3-yl]amino]-5-methyl-N-methylsulfonyl-thiazole-4-carboxamide], the EC50 was 631 nM.

For the compound `Cc1sc(N(Cc2ccccc2)c2cccnn2)nc1C(=O)NS(C)(=O)=O` [Example 238, 2-[benzyl(pyridazin-3-yl)amino]-5-methyl-N-methylsulfonyl-thiazole-4-carboxamide], the EC50 was over 2000 nM.

Turning to `COC(=O)c1ccc(N(Cc2ccccc2)c2nc(C(=O)NS(C)(=O)=O)c(C)s2)nn1` [Example 239, methyl 6-[benzyl-[5-methyl-4-(methylsulfonylcarbamoyl)thiazol-2-yl]amino]pyridazine-3-carboxylate], the EC50 was over 2000 nM.

In the case of `Cc1cccc(CN(c2ccc(C#N)cc2)c2nc(C(=O)NS(C)(=O)=O)c(Br)s2)c1` [Example 245, 5-bromo-2-[4-cyano-N-(m-tolylmethyl)anilino]-N-methylsulfonyl-thiazole-4-carboxamide], the EC50 is 79.4 nM.

As for `Cc1ccc(CN(c2ccc(C#N)cc2)c2nc(C(=O)NS(C)(=O)=O)c(Br)s2)cc1` [Example 246, 5-bromo-2-[4-cyano-N-(p-tolylmethyl)anilino]-N-methylsulfonyl-thiazole-4-carboxamide], the EC50 is 39.8 nM.

With `COc1ccccc1CN(c1ccc(C#N)cc1)c1nc(C(=O)NS(C)(=O)=O)c(Br)s1` [Example 249, 5-bromo-2-[4-cyano-N-[(2-methoxyphenyl)methyl]anilino]-N-methylsulfonyl-thiazole-4-carboxamide], the EC50 was 100 nM.

With `COc1ccc(CN(c2ccc(C#N)cc2)c2nc(C(=O)NS(C)(=O)=O)c(Br)s2)cc1` [Example 250, 5-bromo-2-[4-cyano-N-[(4-methoxyphenyl)methyl]anilino]-N-methylsulfonyl-thiazole-4-carboxamide], the EC50 was 63.1 nM.

As for `Cc1ccccc1CN(c1ccc(C#N)cc1)c1nc(C(=O)NS(C)(=O)=O)c(Cl)s1` [Example 259, 5-chloro-2-[4-cyano-N-(o-tolylmethyl)anilino]-N-methylsulfonyl-thiazole-4-carboxamide], the EC50 was 79.4 nM.

Consider `COc1cccc(CN(c2ccc(C#N)cc2)c2nc(C(=O)NS(C)(=O)=O)c(Cl)s2)c1` [Example 260, 5-chloro-2-[4-cyano-N-[(3-methoxyphenyl)methyl]anilino]-N-methylsulfonyl-thiazole-4-carboxamide], for which the EC50 was 39.8 nM.
